Among the data in BindingDB's records for doi:10.1016/j.bmcl.2008.04.031 (The University of Tokyo, 2008) are IC50 values, retold here.

Each structure is given as a SMILES string.

A short description of the assay: Degradation promoting activity of FLAG tagged cIAP1 expressed in human HT1080 cells after 3 hrs by Western blotting analysis. On the technique in general: In western blotting, separated proteins are transferred to a membrane and probed.

As usually defined, the IC50 is the point on the concentration scale where inhibition reaches its midpoint. The low end stands for inhibition by little substance, the high end for a need for much substance. Compound `COC(=O)[C@H](CC(C)C)NC(=O)[C@@H](O)[C@H](N)Cc1ccccc1` [(S)-methyl 2-((2S,3R)-3-amino-2-hydroxy-4-phenylbutanamido)-4-methylpentanoate] came in with an IC50 of 690 nM. Turning to `CC(C)C[C@H](NC(=O)[C@@H](O)[C@H](N)Cc1ccccc1)C(=O)OCCNS(=O)(=O)c1cccc2c(N(C)C)cccc12` [(S)-2-(1-(dimethylamino)naphthalene-5-sulfonamido)ethyl 2-((2S,3R)-3-amino-2-hydroxy-4-phenylbutanamido)-4-methylpentanoate], inhibition was half-maximal at 1860 nM (IC50). Compared with the last compound, the IC50 is about 2.7-fold higher.
